According to patent US20250223268A1, “4-Methylsulfonylbenzamide Compound, Preparation Method, Herbicidal Composition And Use” (Jiangsu Flag Chemical Industry Co., Ltd., priority 2022, published 2025):

Experiments:
Assay in all cases: Greenhouse herbicidal activity assay, post-emergence
Format in all cases: in vivo
Cyperus iria = settings: Post-emergence test, rate 150 g a.i./hm^2, grade by fresh weight inhibition rate
Text: (§1) Post-emergence: Seeds of gramineous weeds (Echinochloa crusgalli, Echinochloa crusgalli var. zelayensis, Echinochloa phyllopogon, Eleusine indica, Digitaria sanguinalis, Leptochloa chinensis, Setaria viridis, Alopecurus japonicus Steud, Beckmannia syzigachne, Polypogon fugax, Alopecurus aequalis, Lolium multiflorum, Poa annua, Aegilops tataschii, Avena fatua, Alopecurus myosuroides, Bromus japonicus), broadleaf weeds (Eclipta prostrata, Amaranthus retroflexus, Rorippa indica, Myosoton aquaticum, Veronica didyma, Galium aparine, Solanum nigrum, Xanthium sibiricum, Conyza canadensis, Sesbania cannabina, Sagittaria trifolia), and Cyperus iria (Cyperus iria, Scirpus juncoides, Cyperus difformis, etc.) were sown in plastic pots (7 cm diameter) with nutrient soil and bottom holes. Crop seeds (including Oryza sativa subsp. indica, Oryza sativa subsp. japonica, Oryza sativa L. var. Glutinosa matsum, Triticum aestivum, Zea mays, Sorghum bicolor, Setaria italica, Glycine max, Gossypium hirsutum, Brassica napus, Arachis hypogaea) were sown in plastic pots (10 cm diameter) with nutrient soil and bottom holes. After sowing, the pots were placed in the growth chamber until the plants reached the 3-6 leaf stage for foliar spraying. Post-treatment, the materials were air-dried naturally and returned to the growth chamber. Results were assessed 14-21 days later.
(§2) • A: Fresh weight inhibition rate≥80% to 100%; • B: Fresh weight inhibition rate[…] to <80%; • C: Fresh weight inhibition rate≥40% to <60%; • D: Fresh weight inhibition rate≥20% to <40%; • E: Fresh weight inhibition rate<20%; • NT: Not tested.

Digitaria sanguinalis = settings: Post-emergence test, rate 150 g a.i./hm^2; grade by fresh weight inhibition rate
Text: as §1, §2

Eclipta prostrata = settings: Post-emergence test, rate 150 g a.i./hm^2, grade by fresh weight inhibition rate
Text: as §1, §2

Leptochloa chinensis = settings: Post-emergence test, rate 150 g a.i./hm^2, grade by fresh weight inhibition rate
Text: as §1, §2

Echinochloa crusgalli = settings: Post-emergence test, rate 150 g a.i./hm^2, grade by fresh weight inhibition rate
Text: as §1, §2

Row | Structure (SMILES) | Control efficacy grade, Cyperus iria (Cyperus iria) | Control efficacy grade, Digitaria sanguinalis (Digitaria sanguinalis) | Control efficacy grade, Eclipta prostrata (Eclipta prostrata) | Control efficacy grade, Leptochloa chinensis (Leptochloa chinensis) | Control efficacy grade, Echinochloa crusgalli (Echinochloa crusgalli) | pest or weed control at 150 g/ha (Cyperus iria; Cyperus iria, read-out: Control efficacy grade, Cyperus iria) [%] | pest or weed control at 150 g/ha (Echinochloa crusgalli; Echinochloa crus-galli, read-out: Control efficacy grade, Echinochloa crusgalli) [%] | pest or weed control at 150 g/ha (Eclipta prostrata; Eclipta prostrata, read-out: Control efficacy grade, Eclipta prostrata) [%] | pest or weed control at 150 g/ha (Leptochloa chinensis; Dinebra chinensis, read-out: Control efficacy grade, Leptochloa chinensis) [%]
1 | Cc1nnc(NC(=O)c2ccc(S(C)(=O)=O)c([S+]([O-])Cc3ccccc3)c2Cl)o1 (racemic) [Compound 3-68] | A (Fresh weight inhibition rate≥80% to 100%) | B (Fresh weight inhibition rate≥260% to <80%) | A (Fresh weight inhibition rate≥80% to 100%) | A (Fresh weight inhibition rate≥80% to 100%) | – | – | – | – | –
2 | CC(C)c1nnc(NC(=O)c2ccc(S(C)(=O)=O)c([S+]([O-])C3CCCC3)c2Cl)o1 (racemic) [Compound 3-546] | A (Fresh weight inhibition rate≥80% to 100%) | – | A (Fresh weight inhibition rate≥80% to 100%) | A (Fresh weight inhibition rate≥80% to 100%) | B (Fresh weight inhibition rate≥260% to <80%) | – | – | – | –
3 | CC(C)c1nnc(NC(=O)c2ccc(S(C)(=O)=O)c([S+]([O-])C3CCCCC3)c2Cl)o1 (racemic) [Compound 3-551] | A (Fresh weight inhibition rate≥80% to 100%) | – | A (Fresh weight inhibition rate≥80% to 100%) | A (Fresh weight inhibition rate≥80% to 100%) | B (Fresh weight inhibition rate≥260% to <80%) | – | – | – | –
4 | CS(=O)(=O)c1ccc(C(=O)Nc2nnc(C3CC3)o2)c(Cl)c1[S+]([O-])C1CC1 (racemic) [Compound 3-652] | A (Fresh weight inhibition rate≥80% to 100%) | A (Fresh weight inhibition rate≥80% to 100%) | A (Fresh weight inhibition rate≥80% to 100%) | A (Fresh weight inhibition rate≥80% to 100%) | – | – | – | – | –
5 | Cn1nnnc1NC(=O)c1ccc(S(C)(=O)=O)c(SC2CCCC2)c1Cl [Compound 1-42] | A (Fresh weight inhibition rate≥80% to 100%) | – | A (Fresh weight inhibition rate≥80% to 100%) | A (Fresh weight inhibition rate≥80% to 100%) | B (Fresh weight inhibition rate≥260% to <80%) | – | – | – | –
6 | Cn1nnnc1NC(=O)c1ccc(S(C)(=O)=O)c(SC2CCCCC2)c1Cl [Compound 1-47] | A (Fresh weight inhibition rate≥80% to 100%) | – | A (Fresh weight inhibition rate≥80% to 100%) | A (Fresh weight inhibition rate≥80% to 100%) | B (Fresh weight inhibition rate≥260% to <80%) | – | – | – | –
7 | CCCSc1c(S(C)(=O)=O)ccc(C(=O)N(C)c2nnnn2C)c1Cl [Compound 1-97] | A (Fresh weight inhibition rate≥80% to 100%) | B (Fresh weight inhibition rate≥260% to <80%) | – | – | – | – | – | – | –
8 | Cn1ncnc1NC(=O)c1ccc(S(C)(=O)=O)c(S(=O)(=O)CC2CC2)c1Cl [Compound 2-31] | A (Fresh weight inhibition rate≥80% to 100%) | – | A (Fresh weight inhibition rate≥80% to 100%) | A (Fresh weight inhibition rate≥80% to 100%) | A (Fresh weight inhibition rate≥80% to 100%) | – | – | – | –
9 | CS(=O)(=O)c1ccc(C(=O)Nc2nnco2)c(Cl)c1S(=O)(=O)CCC#N [Compound 3-377] | A (Fresh weight inhibition rate≥80% to 100%) | – | A (Fresh weight inhibition rate≥80% to 100%) | A (Fresh weight inhibition rate≥80% to 100%) | C (Fresh weight inhibition rate≥40% to <60%) | – | – | – | –
10 | CC(C)Sc1c(S(C)(=O)=O)ccc(C(=O)Nc2nnc(C3CC3)o2)c1Cl [Compound 3-620, 2-chloro-N-(5-cyclopropyl-1,3,4-oxadiazol-2-yl)-3-(isopropylthio)-4-(methylsulfonyl)benzamide] | – | – | – | – | – | 80 to 260 | 80 to 100 | 80 to 260 | 80 to 100
